This note sets out measurements from PubChem BioAssay AID330 (DTP/NCI, 2004).

For the experiment, the system named is P388 leukemia ip, CD2F1 mice, survival T/C. Kind of experiment: NCI In Vivo Anticancer Drug Screen. Data for tumor model P388 Leukemia (intraperitoneal) in CD2F1 (CDF1) mice. The conditions noted are these: endpoint: median survival time, higher = longer survival. Summed up:
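Mice carrying the transplanted tumor received test compound or vehicle. Survival was recorded in each group, and the value is the treated-group measurement divided by that of the vehicle-treated control group.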

[1] abbreviates: dose: 100.0 mg/kg/injection, schedule: Q04DX003 (ip), vehicle: saline with Tween-80.
[2] abbreviates: dose: 200.0 mg/kg/injection, schedule: Q04DX003 (ip), vehicle: saline with Tween-80.
[3] abbreviates: dose: 400.0 mg/kg/injection, schedule: Q04DX003 (ip), vehicle: saline with Tween-80.
[4] abbreviates: dose: 50.0 mg/kg/injection, schedule: Q01DX005 (ip), vehicle: Klucel (hydroxypropylcellulose) (HPC).
Setting [5] is: dose: 100.0 mg/kg/injection, schedule: Q01DX005 (ip), vehicle: Klucel (hydroxypropylcellulose) (HPC).
[6] abbreviates: dose: 200.0 mg/kg/injection, schedule: Q01DX005 (ip), vehicle: Klucel (hydroxypropylcellulose) (HPC).
The mark [7] stands for this setting: dose: 50.0 mg/kg/injection, schedule: Q01DX005 (ip), vehicle: saline with Tween-80.
The mark [8] stands for this setting: dose: 200.0 mg/kg/injection, schedule: Q01DX005 (ip), vehicle: saline with Tween-80.
The mark [9] stands for this setting: dose: 60.0 mg/kg/injection, schedule: Q01DX005 (ip), vehicle: saline with Tween-80.
The mark [10] stands for this setting: dose: 50.0 mg/kg/injection, schedule: Q01DX005 (ip), vehicle: saline.
Setting [11] is: dose: 100.0 mg/kg/injection, schedule: Q01DX005 (ip), vehicle: saline.
Setting [12] is: dose: 200.0 mg/kg/injection, schedule: Q01DX005 (ip), vehicle: saline.
[13] abbreviates: dose: 120.0 mg/kg/injection, schedule: Q01DX005 (ip), vehicle: saline with Tween-80.
The mark [14] stands for this setting: dose: 240.0 mg/kg/injection, schedule: Q01DX005 (ip), vehicle: saline with Tween-80.

Toxic doses and inconclusive results are not listed.

`C(=N\Nc1nnc2c3ccccc3c3ccccc3c2n1)/c1ccc2c(c1)OCO2`: the T/C by setting is: (dose: 50.0 mg/kg/injection, schedule: Q04DX002 (ip), vehicle: suspension in saline) 91 % of control; (dose: 100.0 mg/kg/injection, schedule: Q04DX002 (ip), vehicle: suspension in saline) 88 % of control; (dose: 200.0 mg/kg/injection, schedule: Q04DX002 (ip), vehicle: suspension in saline) 91 % of control.

`CCCCCCC(=O)/C=C/C=C/c1ccccc1`: the T/C runs as follows: under setting [1], 100 % of control; under setting [2], 103 % of control; under setting [3], 92 % of control.

In the case of `OCCSCc1cnc2ccccn12`, the T/C is 105 % of control (dose: 25.0 mg/kg/injection, schedule: Q01DX009 (ip), vehicle: saline) and 100 % of control (dose: 50.0 mg/kg/injection, schedule: Q01DX009 (ip), vehicle: saline).

For `OC1CSc2ccccc2-n2cccc21` (stereo not given), the T/C by setting is: (dose: 60.0 mg/kg/injection, schedule: Q01DX005 (ip), vehicle: Klucel (hydroxypropylcellulose) (HPC)) 99 % of control; (dose: 120.0 mg/kg/injection, schedule: Q01DX005 (ip), vehicle: Klucel (hydroxypropylcellulose) (HPC)) 106 % of control; (dose: 240.0 mg/kg/injection, schedule: Q01DX005 (ip), vehicle: Klucel (hydroxypropylcellulose) (HPC)) 105 % of control.

In the case of `COC(=O)c1ccc(O)c([N+](=O)[O-])c1`, the T/C is 100 % of control (dose: 50.0 mg/kg/injection, schedule: Q04DX003 (ip), vehicle: saline with Tween-80); 109 % of control under setting [1]; 100 % of control under setting [2].

Turning to `CC12CC1CCCC2OC(=O)c1cc([N+](=O)[O-])cc([N+](=O)[O-])c1` (stereo not given), the T/C runs as follows: under setting [1], 100 % of control; under setting [2], 95 % of control; under setting [3], 98 % of control.

Turning to `NCCNCC[OH2+].NCCNCC[OH2+].O=[N+]([O-])[O-].[Cu+2]`, the T/C runs as follows: (dose: 3.12 mg/kg/injection, schedule: Q01DX009 (ip), vehicle: Klucel (hydroxypropylcellulose) (HPC)) 98 % of control; (dose: 6.25 mg/kg/injection, schedule: Q01DX009 (ip), vehicle: Klucel (hydroxypropylcellulose) (HPC)) 111 % of control; (dose: 6.25 mg/kg/injection, schedule: Q04DX003 (ip), vehicle: saline) 97 % of control; (dose: 12.5 mg/kg/injection, schedule: Q01DX009 (ip), vehicle: Klucel (hydroxypropylcellulose) (HPC)) 93 % of control; (dose: 12.5 mg/kg/injection, schedule: Q04DX003 (ip), vehicle: saline) 100 % of control; (dose: 25.0 mg/kg/injection, schedule: Q04DX003 (ip), vehicle: saline) 86 % of control.

Take `CCOC(=O)/C(C#N)=C/NCCc1c[nH]c2ccccc12`: the T/C under setting [4] was 102 % of control, the T/C under setting [5] was 103 % of control and the T/C under setting [6] was 94 % of control.

Turning to `O=C1CNC(=O)c2cc(N=Cc3ccccc3O)ccc2N1`, the T/C is, setting by setting: under setting [1], 111 % of control; under setting [2], 114 % of control; under setting [3], 104 % of control.

With `Cl.O=C([O-])C1C[SH+]C(C(O)C(O)C(O)C(O)CO)N1.O=C([O-])C1C[SH+]C(C(O)C(O)C(O)C(O)CO)N1.[Pd+2]` (stereo not given), the T/C was 103 % of control (dose: 100.0 mg/kg/injection, schedule: Q01DX001 (ip), vehicle: saline); 104 % of control (dose: 200.0 mg/kg/injection, schedule: Q01DX001 (ip), vehicle: saline); 95 % of control (dose: 400.0 mg/kg/injection, schedule: Q01DX001 (ip), vehicle: saline).

For the compound `C#CCN1c2c(nc(N)[nH]c2=O)NCC1CNc1ccc(C(=O)NC(CCC(=O)O)C(=O)O)cc1` (stereo not given), the T/C by setting is: (dose: 50.0 mg/kg/injection, schedule: Q01DX005 (ip), vehicle: alkali diluted with saline) 105 % of control; (dose: 100.0 mg/kg/injection, schedule: Q01DX005 (ip), vehicle: alkali diluted with saline) 92 % of control; (dose: 200.0 mg/kg/injection, schedule: Q01DX005 (ip), vehicle: alkali diluted with saline) 105 % of control.

Regarding `Cn1c(O)c(N=NC(=S)NC(=O)C23CC4CC(CC(C4)C2)C3)c2ccccc21`, the T/C (dose: 1.56 mg/kg/injection, schedule: Q01DX005 (ip), vehicle: saline with Tween-80) is 96 % of control; the T/C (dose: 3.12 mg/kg/injection, schedule: Q01DX005 (ip), vehicle: saline with Tween-80) was 97 % of control; the T/C (dose: 6.25 mg/kg/injection, schedule: Q01DX005 (ip), vehicle: saline with Tween-80) was 103 % of control; the T/C under setting [7] was 86 % of control; the T/C under setting [8] was 89 % of control.

With `CC(C)=CCCc1cc(-c2cc(CCC=C(C)C)nc(N)n2)nc(N)n1`, the T/C is 99 % of control (dose: 60.0 mg/kg/injection, schedule: Q01DX005 (ip), vehicle: saline) and 103 % of control (dose: 120.0 mg/kg/injection, schedule: Q01DX005 (ip), vehicle: saline).

On to `Cc1ccc2c(c1)nc(C)c(=O)n2CC1CCCN2CCCC[C@H]12` (stereo not given in full), for which the T/C by setting is: (dose: 15.0 mg/kg/injection, schedule: Q01DX005 (ip), vehicle: saline with Tween-80) 97 % of control; (dose: 30.0 mg/kg/injection, schedule: Q01DX005 (ip), vehicle: saline with Tween-80) 97 % of control; under setting [9], 97 % of control.

`CSC1SCC2C(=O)N(C)C(C(C)C)C(=O)OCC(NC(=O)c3cnc4ccccc4n3)C(=O)NC(C)C(=O)N(C)C1C(=O)N(C)C(C(C)C)C(=O)OCC(NC(=O)c1cnc3ccccc3n1)C(=O)NC(C)C(=O)N2C` (stereo not given): the T/C runs as follows: (dose: 0.5 micrograms/kg/injection, schedule: Q01DX010 (ip), vehicle: saline) 100 % of control; (dose: 30.0 micrograms/kg/injection, schedule: Q01DX009 (oral), vehicle: saline with Tween-80) 97 % of control; (dose: 60.0 micrograms/kg/injection, schedule: Q01DX009 (ip), vehicle: saline with Tween-80) 205 % of control; (dose: 60.0 micrograms/kg/injection, schedule: Q01DX009 (oral), vehicle: saline with Tween-80) 101 % of control; (dose: 120.0 micrograms/kg/injection, schedule: Q01DX009 (oral), vehicle: saline with Tween-80) 96 % of control; (dose: 240.0 micrograms/kg/injection, schedule: Q01DX009 (ip), vehicle: saline with Tween-80) 117 % of control. For the same compound, the T/C (dose: 240.0 micrograms/kg/injection, schedule: Q01DX009 (oral), vehicle: saline with Tween-80) was 99 % of control and the T/C (dose: 480.0 micrograms/kg/injection, schedule: Q01DX009 (oral), vehicle: saline with Tween-80) was 96 % of control.

In the case of `CCCCCCCCCCN1COC2Cc3ccccc3CC21` (stereo not given), the T/C under setting [10] is 99 % of control, the T/C under setting [11] is 100 % of control and the T/C under setting [12] was 100 % of control.

With `COc1ccccc1NC(=O)C1=CNC(C)=C(C(=O)Nc2ccccc2OC)C1/C=C/c1ccccc1` (stereo not given), the T/C is 100 % of control under setting [9], 105 % of control under setting [13] and 105 % of control under setting [14].

In the case of `N#CC1c2ccccc2C=CN1C(=O)CCCl` (stereo not given), the T/C by setting is: (dose: 50.0 mg/kg/injection, schedule: Q01DX009 (ip), vehicle: Klucel (hydroxypropylcellulose) (HPC)) 106 % of control; (dose: 100.0 mg/kg/injection, schedule: Q01DX009 (ip), vehicle: Klucel (hydroxypropylcellulose) (HPC)) 108 % of control; (dose: 200.0 mg/kg/injection, schedule: Q01DX009 (ip), vehicle: Klucel (hydroxypropylcellulose) (HPC)) 108 % of control.

Turning to `N#CC1=C(N)OC(/C=C/c2ccccc2)=C(C#N)C1c1ccccc1` (stereo not given), the T/C is, setting by setting: under setting [7], 97 % of control; (dose: 100.0 mg/kg/injection, schedule: Q01DX005 (ip), vehicle: saline with Tween-80) 98 % of control; under setting [8], 89 % of control.

As to `COc1ccccc1P(C)(=O)c1ccccc1` (stereo not given), the T/C under setting [4] was 102 % of control, the T/C under setting [5] was 103 % of control and the T/C under setting [6] is 98 % of control.

`COC1(OC)C2(Cl)CC(C(=O)O)C1(Cl)C(Cl)=C2Cl` (stereo not given): the T/C under setting [9] is 102 % of control, the T/C under setting [13] is 99 % of control and the T/C under setting [14] is 104 % of control.

`NNC(=O)C(O)C(O)C(O)C(O)CO` (stereo not given): the T/C reads like this: under setting [10], 92 % of control; under setting [11], 100 % of control; under setting [12], 100 % of control.

On to `CC(NC(=O)C1CC(O)CN1C(=O)CN)C(=O)O` (stereo not given), for which the T/C is, setting by setting: under setting [4], 96 % of control; under setting [5], 110 % of control; under setting [6], 94 % of control.

As to `OCCN1CCN(C2=Nc3cccnc3Nc3cscc32)CC1`, the T/C was 101 % of control under setting [9], 111 % of control under setting [13] and 96 % of control under setting [14].
